Measured values: the kinase profiling compilation of Christmann-Franck et al. (2016)
Where “and” joins values, the source holds several entries; their conditions need not be identical. Identical values can stand only once.

How the values were obtained:
Assay in all cases: radiometric filter-binding kinase assay, Kinase HotSpot
Conditions in all cases: compound 0.5 µM; ATP 10 µM
[1] = target: ABL1 (human) (UniProt P00519)
[2] = target: ACVRL1 (human) (UniProt P37023)
[3] = target: CAMK1 (human) (UniProt Q14012)
[4] = target: CAMK2D (human) (UniProt Q13557)
[5] = target: CDC42BPA (human) (UniProt Q5VT25)
[6] = target: CDK5 CDK5R1 p35 (human) (UniProt Q00535+Q15078)
[7] = target: CDK7 CCNH MNAT1 (human) (UniProt P50613+P51948+P51946)
[8] = target: CDK9 CCNK (human) (UniProt O75909+P50750)
[9] = target: CDK9 CCNT1 (human) (UniProt P50750+O60563)
[10] = target: CSNK2A1 (human) (UniProt P68400)
[11] = target: DSTYK (human) (UniProt Q6XUX3)
[12] = target: DYRK3 (human) (UniProt O43781)
[13] = target: EPHA7 (human) (UniProt Q15375)
[14] = target: FGR (human) (UniProt P09769)
[15] = target: FYN (human) (UniProt P06241)
[16] = target: HIPK2 (human) (UniProt Q9H2X6)
[17] = target: KIT (human) (UniProt P10721)
[18] = target: MAP3K11 (human) (UniProt Q16584)
[19] = target: MAP3K7 TAB1 (human) (UniProt O43318+Q15750)
[20] = target: MAP4K5 (human) (UniProt Q9Y4K4)
[21] = target: MATK (human) (UniProt P42679)
[22] = target: MELK (human) (UniProt Q14680)
[23] = target: MST4 (human) (UniProt Q9P289)
[24] = target: PAK3 (human) (UniProt O75914)
[25] = target: PAK4 (human) (UniProt O96013)
[26] = target: PAK6 (human) (UniProt Q9NQU5)
[27] = target: PBK (human) (UniProt Q96KB5)
[28] = target: PDGFRA (human) (UniProt P16234)
[29] = target: PIM2 (human) (UniProt Q9P1W9)
[30] = target: PIM3 (human) (UniProt Q86V86)
[31] = target: PKN2 (human) (UniProt Q16513)
[32] = target: PRKCA (human) (UniProt P17252)
[33] = target: PRKCG (human) (UniProt P05129)
[34] = target: PRKCH (human) (UniProt P24723)
[35] = target: PRKG2 (human) (UniProt Q13237)
[36] = target: ROCK2 (human) (UniProt O75116)
[37] = target: STK3 (human) (UniProt Q13188)
[38] = target: TTK (human) (UniProt P33981)
[39] = target: VRK1 (human) (UniProt Q99986)
[40] = target: DAPK2 (human) (UniProt Q9UIK4)
[41] = target: LYN (human) (UniProt P07948)

Sequence of DYRK3 (human) (O43781 whole entry, looked up): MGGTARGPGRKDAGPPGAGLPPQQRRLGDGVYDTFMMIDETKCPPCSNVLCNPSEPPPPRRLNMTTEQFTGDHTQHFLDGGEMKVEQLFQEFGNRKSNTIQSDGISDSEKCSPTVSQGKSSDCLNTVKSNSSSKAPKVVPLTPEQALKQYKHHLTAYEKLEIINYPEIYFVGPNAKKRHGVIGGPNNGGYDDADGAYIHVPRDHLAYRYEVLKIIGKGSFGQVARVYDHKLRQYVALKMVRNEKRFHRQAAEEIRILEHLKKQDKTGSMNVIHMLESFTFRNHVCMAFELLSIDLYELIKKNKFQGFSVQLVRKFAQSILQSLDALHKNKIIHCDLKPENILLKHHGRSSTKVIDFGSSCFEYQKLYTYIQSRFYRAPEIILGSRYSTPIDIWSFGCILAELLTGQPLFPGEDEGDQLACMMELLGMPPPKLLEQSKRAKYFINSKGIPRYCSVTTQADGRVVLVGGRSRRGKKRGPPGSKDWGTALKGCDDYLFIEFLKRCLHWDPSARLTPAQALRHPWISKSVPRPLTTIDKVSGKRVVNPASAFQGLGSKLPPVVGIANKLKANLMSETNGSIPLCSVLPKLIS
Sequence of MAP3K11 (human) (Q16584 whole entry, looked up): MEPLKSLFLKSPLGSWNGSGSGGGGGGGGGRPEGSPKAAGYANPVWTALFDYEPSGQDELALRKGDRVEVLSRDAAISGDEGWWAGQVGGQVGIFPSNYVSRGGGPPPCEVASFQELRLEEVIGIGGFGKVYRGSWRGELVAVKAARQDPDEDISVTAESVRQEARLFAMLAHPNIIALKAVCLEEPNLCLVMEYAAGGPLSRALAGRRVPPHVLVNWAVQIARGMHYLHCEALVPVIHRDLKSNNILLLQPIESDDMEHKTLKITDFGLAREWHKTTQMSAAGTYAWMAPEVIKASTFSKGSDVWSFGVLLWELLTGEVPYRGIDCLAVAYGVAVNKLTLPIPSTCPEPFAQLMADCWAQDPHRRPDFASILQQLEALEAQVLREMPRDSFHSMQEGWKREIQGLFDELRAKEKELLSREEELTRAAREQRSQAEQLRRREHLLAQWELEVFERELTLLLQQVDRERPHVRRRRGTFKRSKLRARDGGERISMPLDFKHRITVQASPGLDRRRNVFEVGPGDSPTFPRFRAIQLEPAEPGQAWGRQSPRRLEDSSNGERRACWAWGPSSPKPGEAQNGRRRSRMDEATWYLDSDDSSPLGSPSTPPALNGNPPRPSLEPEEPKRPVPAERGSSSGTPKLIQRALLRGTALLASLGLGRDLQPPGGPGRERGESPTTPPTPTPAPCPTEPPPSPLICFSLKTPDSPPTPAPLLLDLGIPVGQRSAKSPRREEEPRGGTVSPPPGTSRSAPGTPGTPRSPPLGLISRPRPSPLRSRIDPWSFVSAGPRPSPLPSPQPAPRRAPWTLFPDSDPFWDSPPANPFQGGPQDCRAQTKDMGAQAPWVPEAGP
Sequence of CDC42BPA (human) (Q5VT25 whole entry, looked up): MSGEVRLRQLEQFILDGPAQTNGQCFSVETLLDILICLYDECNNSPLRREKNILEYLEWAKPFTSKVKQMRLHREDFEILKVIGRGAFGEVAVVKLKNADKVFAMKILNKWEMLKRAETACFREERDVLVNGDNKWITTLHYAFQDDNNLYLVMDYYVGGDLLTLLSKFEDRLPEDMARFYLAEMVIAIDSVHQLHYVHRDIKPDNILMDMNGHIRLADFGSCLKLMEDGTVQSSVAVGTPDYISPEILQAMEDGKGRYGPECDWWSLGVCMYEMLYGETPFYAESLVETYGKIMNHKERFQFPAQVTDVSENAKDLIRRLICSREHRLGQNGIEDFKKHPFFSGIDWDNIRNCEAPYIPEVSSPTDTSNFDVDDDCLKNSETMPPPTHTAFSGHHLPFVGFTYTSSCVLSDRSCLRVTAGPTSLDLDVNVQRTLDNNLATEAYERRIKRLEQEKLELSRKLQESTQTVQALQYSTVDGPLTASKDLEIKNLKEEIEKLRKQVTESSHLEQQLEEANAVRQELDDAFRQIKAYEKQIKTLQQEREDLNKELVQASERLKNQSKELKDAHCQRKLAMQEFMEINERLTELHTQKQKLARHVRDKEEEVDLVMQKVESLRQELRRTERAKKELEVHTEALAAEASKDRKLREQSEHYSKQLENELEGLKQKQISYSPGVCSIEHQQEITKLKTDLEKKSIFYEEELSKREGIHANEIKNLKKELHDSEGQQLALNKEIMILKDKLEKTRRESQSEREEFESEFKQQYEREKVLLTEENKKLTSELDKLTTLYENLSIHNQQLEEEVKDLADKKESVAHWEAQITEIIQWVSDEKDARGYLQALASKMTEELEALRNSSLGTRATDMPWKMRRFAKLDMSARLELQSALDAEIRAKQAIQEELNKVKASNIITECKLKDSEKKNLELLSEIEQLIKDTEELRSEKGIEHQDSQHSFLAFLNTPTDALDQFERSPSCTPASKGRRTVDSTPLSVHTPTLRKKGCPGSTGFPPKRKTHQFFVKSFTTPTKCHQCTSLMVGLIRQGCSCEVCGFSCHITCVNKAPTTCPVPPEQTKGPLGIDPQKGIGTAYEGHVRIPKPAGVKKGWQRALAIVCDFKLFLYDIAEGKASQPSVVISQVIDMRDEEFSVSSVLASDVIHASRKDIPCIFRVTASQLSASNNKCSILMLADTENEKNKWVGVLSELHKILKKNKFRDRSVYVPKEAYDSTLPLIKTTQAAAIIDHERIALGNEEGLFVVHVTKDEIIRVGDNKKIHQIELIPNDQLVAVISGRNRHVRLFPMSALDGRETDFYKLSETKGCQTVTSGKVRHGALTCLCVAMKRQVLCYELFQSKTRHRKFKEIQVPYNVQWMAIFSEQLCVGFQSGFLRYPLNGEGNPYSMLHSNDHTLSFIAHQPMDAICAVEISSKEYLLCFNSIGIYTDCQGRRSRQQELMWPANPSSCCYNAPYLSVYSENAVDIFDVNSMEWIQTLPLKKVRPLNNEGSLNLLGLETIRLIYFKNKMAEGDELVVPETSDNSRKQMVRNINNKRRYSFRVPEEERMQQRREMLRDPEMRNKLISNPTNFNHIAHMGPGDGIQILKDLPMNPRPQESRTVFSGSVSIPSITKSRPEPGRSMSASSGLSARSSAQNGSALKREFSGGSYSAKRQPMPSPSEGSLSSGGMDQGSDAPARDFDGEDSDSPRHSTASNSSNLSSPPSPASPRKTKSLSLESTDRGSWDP
Sequence of CAMK2D (human) (Q13557 whole entry, looked up): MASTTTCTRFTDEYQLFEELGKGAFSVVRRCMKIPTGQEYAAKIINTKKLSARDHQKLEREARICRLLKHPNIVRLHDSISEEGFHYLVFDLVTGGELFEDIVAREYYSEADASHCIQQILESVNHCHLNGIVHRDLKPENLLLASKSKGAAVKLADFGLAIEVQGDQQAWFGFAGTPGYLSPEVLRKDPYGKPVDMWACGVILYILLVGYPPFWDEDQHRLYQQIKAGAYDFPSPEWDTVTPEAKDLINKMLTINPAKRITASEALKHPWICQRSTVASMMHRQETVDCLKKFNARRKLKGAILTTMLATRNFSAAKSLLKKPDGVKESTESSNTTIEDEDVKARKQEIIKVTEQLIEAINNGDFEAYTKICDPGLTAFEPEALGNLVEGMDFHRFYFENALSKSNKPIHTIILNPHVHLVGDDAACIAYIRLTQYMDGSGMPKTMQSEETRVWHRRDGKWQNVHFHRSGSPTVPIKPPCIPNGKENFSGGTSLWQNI
Sequence of FYN (human) (P06241 whole entry, looked up): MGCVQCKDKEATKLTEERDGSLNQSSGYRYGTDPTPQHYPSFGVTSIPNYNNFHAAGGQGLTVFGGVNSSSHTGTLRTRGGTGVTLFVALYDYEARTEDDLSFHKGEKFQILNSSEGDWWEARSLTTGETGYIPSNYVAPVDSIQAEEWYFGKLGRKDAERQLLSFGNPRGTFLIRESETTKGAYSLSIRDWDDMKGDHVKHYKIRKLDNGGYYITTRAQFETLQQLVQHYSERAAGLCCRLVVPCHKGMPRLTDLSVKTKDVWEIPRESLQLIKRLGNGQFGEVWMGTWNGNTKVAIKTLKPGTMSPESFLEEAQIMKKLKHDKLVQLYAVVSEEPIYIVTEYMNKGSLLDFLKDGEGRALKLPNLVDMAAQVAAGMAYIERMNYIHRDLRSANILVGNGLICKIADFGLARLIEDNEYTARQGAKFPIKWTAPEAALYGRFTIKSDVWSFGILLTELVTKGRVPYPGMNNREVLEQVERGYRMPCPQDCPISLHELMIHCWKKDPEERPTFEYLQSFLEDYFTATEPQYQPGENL

SMILES | residual activity [1] | residual activity [2] | residual activity [3] | residual activity [4] | residual activity [5] | residual activity [8] | residual activity [9] | residual activity [10] | residual activity [11] | residual activity [12] | residual activity [13] | residual activity [14] | residual activity [15] | residual activity [16] | residual activity [17] | residual activity [18] | residual activity [19] | residual activity [20] | residual activity [21] | residual activity [22] | further results
Cn1cc(/C=C2\C(=O)Nc3ccc(S(N)(=O)=O)cc32)c2ccccc21 | 52.5% | 99.1% | 75.7% | 66.8% | 70.7% | 86.8% | 65% | 84.7% | 92.5% | 89.7% | 41.3% | 28.4% | 45.7% | 82.6% | 68.2% | 9.89% | 48.9% | 13.4% | 103% | 63% | residual activity [6]: 55.8%; residual activity [7]: 73.7%; residual activity [23]: 101%; residual activity [24]: 93.8%; residual activity [25]: 86.2%; residual activity [26]: 90.1%; residual activity [27]: 99.6%; residual activity [28]: 81%; residual activity [29]: 101%; residual activity [30]: 91.6%; residual activity [31]: 81.8%; residual activity [32]: 123%; residual activity [33]: 106%; residual activity [34]: 102%; residual activity [35]: 85%; residual activity [36]: 41%; residual activity [37]: 23.4%; residual activity [38]: 97.3%; residual activity [39]: 103%
N#CCCc1ccc2c(c1)-c1[nH]c3ccc([N+](=O)[O-])cc3c1CC(=O)N2 | 47.8% | 53.6% | 96% | 57.8% | 73.1% | 23.7% | 28.6% | 91.2% | 67.1% | 97.6% | 95.3% | 31% | 52.2% | 106% | 76.6% | 18.4% | 38.1% | 7.61% | 101% | 88.6% | residual activity [6]: 2.6%; residual activity [40]: 96.5%; residual activity [23]: 65.1%; residual activity [24]: 97.1%; residual activity [25]: 86.4%; residual activity [26]: 104%; residual activity [27]: 95.4%; residual activity [28]: 87.4%; residual activity [29]: 104%; residual activity [30]: 70.9%; residual activity [31]: 77.9%; residual activity [32]: 80.9%; residual activity [33]: 93.3%; residual activity [34]: 99.4%; residual activity [35]: 93.9%; residual activity [36]: 28.6%; residual activity [37]: 40.9%; residual activity [38]: 71.7%; residual activity [39]: 97.5%
O=c1cc(N2CCOCC2)oc2c(-c3ccccc3)cccc12 | 99.2% | 91.9% | 96.7% | 100% | 104% | 95.9% | 103% | 64.8% | 113% | 100% | 102% | 97.5% | 100% | 122% | 92.9% | 101% | 85.4% | 92.2% | 84.6% | 91.3% | residual activity [6]: 107%; residual activity [7]: 95.4%; residual activity [40]: 126%; residual activity [41]: 94.5% and 99.4%; residual activity [23]: 97.2%; residual activity [24]: 104%; residual activity [25]: 92.8%; residual activity [26]: 115%; residual activity [27]: 110%; residual activity [28]: 94.6%; residual activity [29]: 106%; residual activity [30]: 88.5%; residual activity [31]: 98.6%; residual activity [32]: 97.5%; residual activity [33]: 94.2%; residual activity [34]: 99%; residual activity [35]: 105%; residual activity [36]: 95.2%; residual activity [38]: 103%; residual activity [39]: 85.4%
O=S(=O)(NCCNC/C=C/c1ccc(Br)cc1)c1cccc2cnccc12 | 101% | 119% | 107% | 97.1% | 97.5% | 85.5% | 87.8% | 97.8% | 91.6% | 83.5% | 109% | 106% | 107% | 99.2% | 101% | 95.6% | 109% | 30.9% | 96.1% | 75.1% | residual activity [7]: 82.8%; residual activity [40]: 72.1%; residual activity [41]: 101% and 126%; residual activity [23]: 94.8%; residual activity [24]: 103%; residual activity [25]: 98.9%; residual activity [26]: 85.5%; residual activity [27]: 107%; residual activity [28]: 98.8%; residual activity [29]: 104%; residual activity [30]: 98.3%; residual activity [31]: 78.9%; residual activity [32]: 85.7%; residual activity [33]: 83.8%; residual activity [34]: 53.2%; residual activity [35]: 56.9%; residual activity [36]: 15.4%; residual activity [37]: 65.6%; residual activity [38]: 99.7%; residual activity [39]: 80.1%
CCCCc1c(-c2ccc(O)cc2)[nH]c2nccnc12 | 79% | 76.2% | 92.5% | 87.3% | 99.3% | 42.8% | 45.9% | 95.9% | 88.9% | 90.9% | 89% | 63% | 62.1% | 88.5% | 80.8% | 32.5% | 80.3% | 65.3% | 109% | 82.5% | residual activity [7]: 88.2%; residual activity [40]: 101%; residual activity [41]: 106% and 87.3%; residual activity [23]: 79.1%; residual activity [24]: 97.7%; residual activity [25]: 108%; residual activity [26]: 94.3%; residual activity [27]: 75.6%; residual activity [28]: 95.1%; residual activity [29]: 121%; residual activity [30]: 72.8%; residual activity [31]: 82.4%; residual activity [32]: 83.7%; residual activity [33]: 95.1%; residual activity [34]: 90.5%; residual activity [35]: 92.6%; residual activity [36]: 97.5%; residual activity [37]: 76.6%; residual activity [38]: 91.6%; residual activity [39]: 87.9%
